The source of these data is patent US20140135310A1, “SULPHONAMIDE DERIVATIVES OF ALICYCLIC AMINES FOR THE TREATMENT OF CENTRAL NERVOUS SYSTEM DISEASES” (Adamed Sp. z o.o., priority 2011, published 2014).

The target in assay [1] is T1, serotonin transporter (SERT) (Homo sapiens, UniProt P31645).
T1 construct: expressed in transfected cells; host or cells: CHO cells
In words: Radioligand binding assay, serotonin transporter (SERT). Particulars: for inhibition at 1 µM / SERT [%]: binding assay, test compound 1×10^−6 M. An outline of the steps: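 Radioligand competition binding with scintillation detection; specific binding is total minus binding under excess unlabelled ligand. Reported as % of control specific binding or % inhibition; IC50 from Hill-equation non-linear regression of competition curves, and Ki via Cheng-Prusoff using radioligand concentration and Scatchard-derived KD.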

Assay [2] has as its target T2, α2C adrenergic receptors (Homo sapiens, UniProt P18825).
T2 construct: expressed in transfected cells; host or cells: CHO cells
T2 sequence (P18825 1-462): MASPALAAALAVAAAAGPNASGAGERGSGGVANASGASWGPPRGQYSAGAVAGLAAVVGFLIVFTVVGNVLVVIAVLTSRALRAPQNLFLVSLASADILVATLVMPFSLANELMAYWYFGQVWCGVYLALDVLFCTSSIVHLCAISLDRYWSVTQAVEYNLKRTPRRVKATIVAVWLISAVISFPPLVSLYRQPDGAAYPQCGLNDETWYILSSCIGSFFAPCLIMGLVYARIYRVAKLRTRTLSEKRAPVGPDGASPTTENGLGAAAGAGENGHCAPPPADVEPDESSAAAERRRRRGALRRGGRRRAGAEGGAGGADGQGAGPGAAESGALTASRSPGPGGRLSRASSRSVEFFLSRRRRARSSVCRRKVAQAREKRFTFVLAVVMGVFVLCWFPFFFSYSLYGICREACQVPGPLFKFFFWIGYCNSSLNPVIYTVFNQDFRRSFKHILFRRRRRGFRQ
In words: Radioligand binding assay, adrenergic α2C receptors. Particulars: test compound 1×10^−6 M. The source says: (§1) The specific ligand binding to the receptors is defined as the difference between the total binding and the non-specific binding determined in the presence of the excess of unlabelled ligand.
(§2) The results are expressed as a percent of control specific binding ((measured specific binding/control specific binding)×100) and as a percent inhibition of control specific binding (100−((measured specific binding/control specific binding)×100)) obtained in the presence of the test compounds. The specific ligand binding to the receptors is defined as the difference between the total binding and the nonspecific binding determined in the presence of an excess of unlabelled ligand. Scintillation counting was the method of detection of ligand binding. The IC50 values (concentration causing a half-maximal inhibition of control specific binding) were determined by non-linear regression analysis of the competition curves generated with mean replicate values using Hill equation curve fitting (Y=D+[(A−D)/(1+(C/C50)nH)], where Y=specific binding, D=minimum specific binding, A=maximum specific binding, C=compound concentration, C50=IC50, and nH=slope factor). This analysis was performed using a software developed at Cerep (Hill software) and validated by comparison with data generated by the commercial software SigmaPlot® 4.0 for Windows® (© 1997 by SPSS Inc.). The inhibition constants (Ki) were calculated using the Cheng Prusoff equation (Ki=IC50/(1+(L/KD)), where L=concentration of radioligand in the assay, and KD=affinity of the radioligand for the receptor). A scatchard plot was used to determine the Kd.
Experimental conditions for tests are given in Table 7, and results of tests for representative compounds are given in Tables 8 (α1 receptors) and in Tables 9 (α2C receptors).

The target of assay [3] is T3, 5-HT7 receptor (Homo sapiens, UniProt P34969).
T3 construct: purchased PerkinElmer
The assay can be described thus: Radioligand binding assay, serotoninergic 5-HT7 receptors. The settings on record: binding assay result in %, Table 5a. The method, boiled down:
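Competition binding at human 5-HT7 receptors with a radioligand, detected by scintillation counting; non-specific binding was defined with excess unlabelled ligand. IC50 came from Hill-equation fits of competition curves, and Ki from Cheng–Prusoff using radioligand concentration and Scatchard-derived KD.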

Assay [4] concerns the target T4, 5-HT1A receptor (rat hippocampus) (Rattus norvegicus, UniProt P19327).
T4 construct: hippocampus; from tissue; host or cells: rat hippocampus
T4 sequence (P19327 1-422): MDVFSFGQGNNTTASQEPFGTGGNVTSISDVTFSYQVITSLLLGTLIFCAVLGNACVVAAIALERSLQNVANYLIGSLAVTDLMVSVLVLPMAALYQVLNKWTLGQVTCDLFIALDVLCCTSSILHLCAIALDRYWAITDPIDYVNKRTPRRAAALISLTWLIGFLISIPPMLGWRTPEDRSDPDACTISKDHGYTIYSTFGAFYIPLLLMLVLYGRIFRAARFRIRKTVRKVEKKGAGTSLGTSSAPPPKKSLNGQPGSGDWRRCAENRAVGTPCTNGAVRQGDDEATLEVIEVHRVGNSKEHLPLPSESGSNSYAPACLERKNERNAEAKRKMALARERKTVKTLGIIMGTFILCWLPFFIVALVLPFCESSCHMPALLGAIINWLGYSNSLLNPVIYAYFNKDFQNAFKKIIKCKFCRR
In words: Radioligand binding assay, serotoninergic 5-HT1A receptors. The settings on record: binding assay result in %, Table 5a.

Assay [5] has as its target dopaminergic receptors D2 (Homo sapiens, UniProt P14416). In words: Radioligand binding assay, dopaminergic D2 receptors. The settings on record: for inhibition at 1 µM / D2 [%]: binding assay, test compound 1×10^−6 M; for Ki: read-out: Inhibition constants Ki for D2 receptors, D2. The method, boiled down: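 Radioligand displacement was measured by scintillation counting, with non-specific binding defined in the presence of excess unlabelled ligand. Competition curves were fitted to the Hill equation to give IC50, and Ki was derived by the Cheng–Prusoff equation.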

Assay [6] has as its target T5, H1 histaminergic receptors (Homo sapiens, UniProt P35367).
T5 construct: expressed in transfected cells; host or cells: HEK-293 cells
The assay can be described thus: Radioligand binding assay, histaminergic H1 receptors. Particulars: human recombinant (HEK-293 cells), [3H]pyrilamine 1 nM.
Source text: as §1, §2
Experimental conditions for tests are given in Table 14, and results of tests for representative compounds are presented in Table 15.

Assay [7] deals with T6, 5-HT2C receptor (Homo sapiens, UniProt P28335).
T6 construct: expressed in transfected cells; host or cells: HEK-293 cells
T6 sequence (P28335 33-458): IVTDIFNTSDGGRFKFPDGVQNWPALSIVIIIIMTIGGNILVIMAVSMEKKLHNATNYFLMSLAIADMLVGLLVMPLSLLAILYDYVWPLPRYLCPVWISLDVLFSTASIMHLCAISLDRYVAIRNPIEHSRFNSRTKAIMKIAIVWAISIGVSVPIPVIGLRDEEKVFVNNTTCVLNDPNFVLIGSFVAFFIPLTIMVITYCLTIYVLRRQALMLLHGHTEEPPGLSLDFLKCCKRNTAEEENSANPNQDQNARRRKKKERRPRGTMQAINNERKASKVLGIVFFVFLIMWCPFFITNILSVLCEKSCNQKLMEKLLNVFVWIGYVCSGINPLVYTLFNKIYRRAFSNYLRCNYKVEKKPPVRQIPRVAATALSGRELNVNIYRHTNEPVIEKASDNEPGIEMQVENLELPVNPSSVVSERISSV
The assay can be described thus: Radioligand binding assay, serotoninergic 5-HT2C receptors. Particulars: test compound 1×10^−6 M.
Source text: as §1, §2
Experimental conditions for tests are given in Table 4, and results of tests for representative compounds of the invention are given in Table 5a and 5b (receptors 5-HT1A, 5-HT2A, 5-HT6 and 5-HT7) and in Table 6 (receptors 5-HT2C).

T3 sequence (P34969 whole entry): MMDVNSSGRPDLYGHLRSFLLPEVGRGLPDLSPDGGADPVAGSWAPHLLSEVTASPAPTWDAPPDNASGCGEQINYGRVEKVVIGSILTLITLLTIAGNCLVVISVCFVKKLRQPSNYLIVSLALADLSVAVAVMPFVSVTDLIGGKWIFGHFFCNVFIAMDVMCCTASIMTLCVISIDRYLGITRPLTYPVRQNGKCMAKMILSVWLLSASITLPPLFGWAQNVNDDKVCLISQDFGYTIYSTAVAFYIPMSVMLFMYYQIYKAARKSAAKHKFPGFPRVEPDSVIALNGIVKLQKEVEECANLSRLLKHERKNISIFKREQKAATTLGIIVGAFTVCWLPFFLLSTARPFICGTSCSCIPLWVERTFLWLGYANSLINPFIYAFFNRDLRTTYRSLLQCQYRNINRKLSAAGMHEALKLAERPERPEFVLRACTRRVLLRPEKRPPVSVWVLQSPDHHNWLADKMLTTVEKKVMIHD
T5 sequence (P35367 whole entry): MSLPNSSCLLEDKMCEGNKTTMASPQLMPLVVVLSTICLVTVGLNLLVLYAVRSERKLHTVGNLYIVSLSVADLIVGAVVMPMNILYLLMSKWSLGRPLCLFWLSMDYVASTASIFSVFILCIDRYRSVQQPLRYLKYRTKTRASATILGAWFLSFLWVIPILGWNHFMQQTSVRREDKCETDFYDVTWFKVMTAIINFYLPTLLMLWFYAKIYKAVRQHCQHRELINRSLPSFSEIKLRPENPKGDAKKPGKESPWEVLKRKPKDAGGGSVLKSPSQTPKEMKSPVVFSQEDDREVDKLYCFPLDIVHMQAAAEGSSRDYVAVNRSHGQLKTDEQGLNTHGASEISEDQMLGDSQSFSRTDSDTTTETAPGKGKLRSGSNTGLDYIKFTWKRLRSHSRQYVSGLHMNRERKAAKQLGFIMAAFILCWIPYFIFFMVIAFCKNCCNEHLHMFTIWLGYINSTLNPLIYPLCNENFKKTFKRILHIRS
T1 sequence (P31645 whole entry): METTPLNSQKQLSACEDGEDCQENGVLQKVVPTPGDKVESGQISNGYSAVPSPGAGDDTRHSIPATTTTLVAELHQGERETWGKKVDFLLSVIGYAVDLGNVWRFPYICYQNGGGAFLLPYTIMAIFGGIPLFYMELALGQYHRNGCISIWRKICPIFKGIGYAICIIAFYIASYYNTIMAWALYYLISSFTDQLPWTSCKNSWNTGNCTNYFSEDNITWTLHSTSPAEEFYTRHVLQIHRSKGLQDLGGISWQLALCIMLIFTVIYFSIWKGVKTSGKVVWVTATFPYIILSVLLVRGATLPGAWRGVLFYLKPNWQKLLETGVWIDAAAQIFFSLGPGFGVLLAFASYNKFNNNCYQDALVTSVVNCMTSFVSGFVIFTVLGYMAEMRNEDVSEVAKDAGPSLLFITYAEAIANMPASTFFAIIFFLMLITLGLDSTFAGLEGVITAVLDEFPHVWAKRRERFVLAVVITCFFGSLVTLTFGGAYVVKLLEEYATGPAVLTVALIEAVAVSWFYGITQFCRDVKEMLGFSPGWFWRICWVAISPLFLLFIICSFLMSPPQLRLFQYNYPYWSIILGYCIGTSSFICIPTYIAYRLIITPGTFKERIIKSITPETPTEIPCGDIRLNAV
Sequence of dopaminergic receptors D2 (P14416 whole entry): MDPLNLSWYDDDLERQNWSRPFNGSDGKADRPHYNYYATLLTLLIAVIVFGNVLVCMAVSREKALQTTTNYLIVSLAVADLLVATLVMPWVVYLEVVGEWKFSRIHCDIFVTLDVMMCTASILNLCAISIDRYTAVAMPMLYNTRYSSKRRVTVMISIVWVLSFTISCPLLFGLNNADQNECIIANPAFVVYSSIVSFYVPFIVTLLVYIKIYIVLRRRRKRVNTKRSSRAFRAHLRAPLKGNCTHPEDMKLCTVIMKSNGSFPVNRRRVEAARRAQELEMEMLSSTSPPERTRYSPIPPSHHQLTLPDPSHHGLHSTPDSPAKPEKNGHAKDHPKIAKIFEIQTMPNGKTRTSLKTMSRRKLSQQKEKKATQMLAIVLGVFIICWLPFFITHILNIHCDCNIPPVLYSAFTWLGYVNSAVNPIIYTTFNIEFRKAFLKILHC

What is called inhibition is the change of the read-out against control, counted positive when it falls. As usually defined, the Ki is a dissociation constant, usually derived from enzyme kinetics or from competition with a known ligand. As to `O=S(=O)(NC1CCN(CCCc2c[nH]c3ccc(F)cc23)C1)c1cccc2ccccc12` (stereo not shown) [Compound 79, N-[1-[3-(5-Fluoro-1H-indol-3-yl)propyl]pyrrolidin-3-yl]naphthalene-1-sulphonamide], the inhibition at 1 µM in assay [1] was 105%; in assay [2] it was 96%; in assay [3] it was 96%; in assay [4], 99%; in assay [5], 95%; in assay [6], 72%. Also, the Ki in assay [1] (read-out: Inhibition constants Ki for SERT, SERT) stood at 0.7 nM.
`CC1(C)Cc2cccc(OCCN3CCC(NS(=O)(=O)c4cccc(O)c4)CC3)c2O1` [Compound 109, N-[1-[2-[(2,2-Dimethyl-3H-benzofuran-7-yl)oxy]ethyl]-4-piperidine]-3-hydroxy-benzenesulphonamide]: the “SERT [%]” value in assay [1] is given as −10%. In assay [2], the “α2C [%]” value was determined as 98%. Besides, the “5-HT7 [%]” value in assay [3] is reported as 99%. The “5-HT1A [%]” value in assay [4] is 96%. Besides, in assay [5], the “D2 [%]” value is recorded as 92%. Further, the “H1 [%]” value in assay [6] is 65%.
On to `O=S(=O)(NC1CCN(CCOc2cccc3ccccc23)C1)c1cccc(O)c1` (stereo not shown) [Compound 115, 3-Hydroksy-N-[1-[2-(1-naphthyloxy)ethyl]pyrrolidin-3-yl]benzenesulphonamide], for which the “SERT [%]” value in assay [1] was found to be 83%. Further, the “α2C [%]” value in assay [2] was 90%. In assay [3], the “5-HT7 [%]” value is 98%. Also, in assay [4], the “5-HT1A [%]” value was 100%. Moreover, the “D2 [%]” value in assay [5] came to 74%. Also, the “H1 [%]” value in assay [6] came to 72%.
For `O=S(=O)(N[C@@H]1CCN(CCCc2noc3cc(F)ccc23)C1)c1ccc2ccccc2c1` [Compound 206, N-[(3R)-1-[3-(6-Fluoro-1,2-benzoxazol-3-yl)propyl]pyrrolidin-3-yl]naphthalene-2-sulphonamide], the inhibition at 1 µM in assay [1] is 62%; in assay [2] it was 93%; in assay [3] it was 100%; in assay [4], 68%; in assay [5] it was 101%; in assay [7], 84%. For the same compound, the Ki in assay [5] came out at 0.3 nM.
Regarding `O=S(=O)(N[C@H]1CCN(CCCc2noc3cc(F)ccc23)C1)c1ccc2ccccc2c1` [Compound 207, N-[(3S)-1-[3-(6-Fluoro-1,2-benzoxazol-3-yl)propyl]pyrrolidin-3-yl]-naphthalene-2-sulphonamide], the inhibition at 1 µM in assay [1] was 58%; in assay [2], 90%; in assay [3] it was 99%; in assay [4] it was 58%; in assay [5], 101%; in assay [6], 65%. The Ki in assay [5] amounted to 3.8 nM.
Take `Cc1ccc2sc(S(=O)(=O)N[C@@H]3CCN(CCCc4noc5cc(F)ccc45)C3)cc2c1` [Compound 228, N-[(3R)-1-[3-(6-Fluoro-1,2-benzoxazol-3-yl)propyl]pyrrolidin-3-yl]-5-methyl-benzothiophene-2-sulphonamide]: the inhibition at 1 µM in assay [1] turned out to be 61%; in assay [2] it was 95%; in assay [3], 92%; in assay [4] it was 27%; in assay [5], 100%; in assay [7], 91%. Further, in assay [5], the Ki came out at 0.7 nM.
Consider `O=S(=O)(NCC1CCN(CCCc2noc3cc(F)ccc23)C1)c1cccc2ccccc12` (stereo not shown) [Compound 239, N-[[1-[3-(6-Fluoro-1,2-benzoxazol-3-yl)propyl]pyrrolidin-3-yl]methyl]naphthalene-1-sulphonamide], for which the inhibition at 1 µM in assay [1] was 36%; in assay [2] it was 89%; in assay [3] it was 92%; in assay [4], 56%; in assay [5], 96%; in assay [7], 49%.
